Experimental data as given in publication PMC10890321, “Identification of Mortalin as the Main Interactor of Mycalin A, a Poly-Brominated C-15 Acetogenin Sponge Metabolite, by MS-Based Proteomics” (Marine Drugs, 2024).

Molecular target: T1, mortalin (GRP75, mitochondrial Stress-70 protein) (Homo sapiens, UniProt P38646)
T1 construct: gene HSPA9
Test: SPR competition (mortalin pre-incubated with MKT-077, injected over immobilized p53)
Format: binding

T1 sequence (P38646 47-679): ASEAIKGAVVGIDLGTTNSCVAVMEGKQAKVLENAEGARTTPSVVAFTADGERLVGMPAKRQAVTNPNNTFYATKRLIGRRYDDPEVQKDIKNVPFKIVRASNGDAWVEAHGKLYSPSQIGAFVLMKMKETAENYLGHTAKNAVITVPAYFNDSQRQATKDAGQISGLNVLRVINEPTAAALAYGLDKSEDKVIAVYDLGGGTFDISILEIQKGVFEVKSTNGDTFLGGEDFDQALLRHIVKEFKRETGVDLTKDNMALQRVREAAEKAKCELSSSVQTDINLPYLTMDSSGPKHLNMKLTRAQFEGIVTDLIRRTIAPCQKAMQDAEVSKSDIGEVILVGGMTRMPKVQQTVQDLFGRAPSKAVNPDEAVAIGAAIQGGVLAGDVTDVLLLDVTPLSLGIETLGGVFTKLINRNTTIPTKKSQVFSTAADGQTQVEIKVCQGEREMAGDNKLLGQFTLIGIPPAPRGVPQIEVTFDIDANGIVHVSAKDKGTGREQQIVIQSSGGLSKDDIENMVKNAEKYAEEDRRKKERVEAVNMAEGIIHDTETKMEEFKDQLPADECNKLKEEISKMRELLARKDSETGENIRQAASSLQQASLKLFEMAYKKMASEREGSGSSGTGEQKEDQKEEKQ
T1 sequence (P04637 whole entry partner): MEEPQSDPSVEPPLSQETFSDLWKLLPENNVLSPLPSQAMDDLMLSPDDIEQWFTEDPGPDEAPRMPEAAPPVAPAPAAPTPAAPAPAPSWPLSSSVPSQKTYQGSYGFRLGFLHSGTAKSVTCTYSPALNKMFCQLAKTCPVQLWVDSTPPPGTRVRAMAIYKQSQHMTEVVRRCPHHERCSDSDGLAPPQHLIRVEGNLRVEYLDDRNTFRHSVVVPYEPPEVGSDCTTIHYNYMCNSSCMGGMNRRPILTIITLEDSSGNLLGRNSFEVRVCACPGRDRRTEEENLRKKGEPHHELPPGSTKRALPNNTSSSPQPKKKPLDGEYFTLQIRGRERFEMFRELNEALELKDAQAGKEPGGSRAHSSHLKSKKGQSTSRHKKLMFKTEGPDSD

## CCn1c(=O)/c(=C2\Sc3ccccc3N2C)s/c1=C\c1cccc[n+]1CC [MKT-077]
  SPR competition (mortalin pre-incubated with MKT-077, injected over immobilized): 843.4 nM
